For this assay, the target named is T1, USP28 (His-tagged USP28-FL-mammalian) (Homo sapiens, UniProt Q96RU2).
T1 construct: Expression of USP28 (1-1077)-TEV-6*His (pTT5 vector); made in house; host or cells: Expi293f cells (pTT5 vector)
T1 sequence (Q96RU2 1-1077): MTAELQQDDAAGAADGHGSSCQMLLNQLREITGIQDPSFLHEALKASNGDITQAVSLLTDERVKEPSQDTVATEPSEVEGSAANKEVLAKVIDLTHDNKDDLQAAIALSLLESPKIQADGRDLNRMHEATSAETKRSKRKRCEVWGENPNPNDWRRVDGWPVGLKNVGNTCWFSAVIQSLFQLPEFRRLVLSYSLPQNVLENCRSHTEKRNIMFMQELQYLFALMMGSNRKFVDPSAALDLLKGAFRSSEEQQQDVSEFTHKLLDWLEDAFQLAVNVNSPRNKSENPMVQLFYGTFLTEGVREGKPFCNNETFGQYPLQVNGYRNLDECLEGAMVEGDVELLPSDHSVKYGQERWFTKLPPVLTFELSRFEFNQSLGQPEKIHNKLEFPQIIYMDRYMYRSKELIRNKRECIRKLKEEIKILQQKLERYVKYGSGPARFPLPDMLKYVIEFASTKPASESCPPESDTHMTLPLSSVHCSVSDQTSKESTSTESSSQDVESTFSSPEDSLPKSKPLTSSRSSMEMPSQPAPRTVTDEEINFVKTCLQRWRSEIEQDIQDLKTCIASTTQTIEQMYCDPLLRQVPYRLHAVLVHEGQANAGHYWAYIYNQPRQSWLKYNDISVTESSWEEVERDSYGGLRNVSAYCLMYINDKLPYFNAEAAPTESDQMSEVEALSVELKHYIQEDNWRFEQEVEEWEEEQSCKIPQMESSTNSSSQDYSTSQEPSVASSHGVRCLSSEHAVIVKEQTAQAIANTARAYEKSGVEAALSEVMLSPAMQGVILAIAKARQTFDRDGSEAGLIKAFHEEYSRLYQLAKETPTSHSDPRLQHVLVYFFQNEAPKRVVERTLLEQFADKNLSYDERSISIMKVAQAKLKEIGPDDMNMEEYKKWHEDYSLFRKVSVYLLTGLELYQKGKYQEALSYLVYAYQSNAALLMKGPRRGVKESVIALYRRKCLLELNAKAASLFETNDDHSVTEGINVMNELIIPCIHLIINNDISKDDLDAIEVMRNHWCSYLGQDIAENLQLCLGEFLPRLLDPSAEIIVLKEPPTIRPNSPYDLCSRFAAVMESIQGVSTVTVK
The assay is described as follows: Ubiquitin-Rhodamine 110 Assay for USP28 Activity, Example A-1(a). As to conditions: Ubiquitin-Rhodamine 110 assay, Example A-1(a); read-out: USP28 A-1(a) IC50 range. Type of assay: biochemical. Put shortly: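 Full-length His-tagged human USP28 (1-1077, Expi293f-expressed), […], with 25 nM Ub-Rh110 (<<Km) in pH 8.0 Tris buffer with BME, BGG, Triton X-100. 10-point dilutions (25 μM-1.3 nM), 45 min at room temperature, citric acid stop, fluorescence 485/535 nm; IC50 by 4-parameter fit.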
As to `Cc1ccc2c(N)c(C(=O)N[C@@H]3CCc4cc(N5CC6CNCC(C5)O6)ccc4C3)sc2n1` [Example 451, N-((2R)-6-(9-oxa-3,7-diazabicyclo[3.3.1]nonan-3-yl)-1,2,3,4-tetrahydronaphthalen-2-yl)-3-amino-6-methylthieno[2,3-b]pyridine-2-carboxamide], the IC50 (in general, the concentration needed to halve the response being measured) was 50 to 200 nM.
Under `Cc1cccc2c(C(=O)N[C@H]3COc4cc(N5CCNCC5)ccc4C3)cnn12` [Example 458, (R)-7-methyl-N-(7-(piperazin-1-yl)chroman-3-yl)pyrazolo[1,5-a]pyridine-3-carboxamide] stands 1 to 50 nM.
The figure for `Cc1ccc2c(N)c(C(=O)N[C@H]3COc4cc(N5CCS(=O)(=O)CC5)ccc4C3)sc2n1` [Example 5-2, (R)-3-amino-N-(7-(1,1-dioxidothiomorpholino)chroman-3-yl)-6-methylthieno[2,3-b]pyridine-2-carboxamide] is 1 to 50 nM; for `Cc1ccc2c(N)c(C(=O)N[C@H]3CCc4cc(N5CCNCC5)c(F)c(F)c4C3)sc2n1` [Example 417, 3-amino-N-[(2S)-7,8-difluoro-6-(piperazin-1-yl)-1,2,3,4-tetrahydronaphthalen-2-yl]-6-methylthieno[2,3-b]pyridine-2-carboxamide] it is 200 to 2000 nM.
Under `Cc1ccc2c(N)c(C(=O)N[C@H]3COc4cc(N5CC[C@@]6(CCCNC6)C5)ccc4C3)sc2n1` [Example 3-14, N-((R)-7-((R)-2,7-diazaspiro[4.5]decan-2-yl)chroman-3-yl)-3-amino-6-methylthieno[2,3-b]pyridine-2-carboxamide] stands 1 to 50 nM; under `O=C(N[C@H]1COc2cc(N3CCNCC3)ccc2C1)c1cnn2cc(Cl)ccc12` [Example 462, (R)-6-chloro-N-(7-(piperazin-1-yl)chroman-3-yl)pyrazolo[1,5-a]pyridine-3-carboxamide], more than 2000 nM.
Take `Cc1ccc2c(N)c(C(=O)N[C@H]3COc4cc(N5CC(O)(C(F)(F)F)C5)ccc4C3)sc2n1` [Example 5-3, (R)-3-amino-N-(7-(3-hydroxy-3-(trifluoromethyl)azetidin-1-yl)chroman-3-yl)-6-methylthieno[2,3-b]pyridine-2-carboxamide]: the IC50 fell in the range of 1 to 50 nM.
As for `Cc1ccc2c(N)c(C(=O)N[C@H]3COc4cc(N5CCC(O)CC5)ccc4C3)sc2n1` [Example 7-1, (R)-3-amino-N-(7-(4-hydroxypiperidin-1-yl)chroman-3-yl)-6-methylthieno[2,3-b]pyridine-2-carboxamide], the IC50 lay within 1 to 50 nM.
Under `O=C(N[C@H]1COc2cc(N3CCNCC3)ccc2C1)c1cn2nc(Cl)ccc2n1` [Example 464, (R)-6-chloro-N-(7-(piperazin-1-yl)chroman-3-yl)imidazo[1,2-b]pyridazine-2-carboxamide] stands more than 2000 nM; under `Cc1ccc2c(N)c(C(=O)N[C@@H]3CCc4cc(N5CCNCC5)c(F)c(F)c4C3)sc2n1` [Example 418, 3-amino-N-[(2R)-7,8-difluoro-6-(piperazin-1-yl)-1,2,3,4-tetrahydronaphthalen-2-yl]-6-methylthieno[2,3-b]pyridine-2-carboxamide], 50 to 200 nM; under `Cc1ccc2c(N)c(C(=O)N[C@H]3COc4cc(N5C[C@@H](N)CC56COC6)ccc4C3)sc2n1` (single isomer, unassigned) [Example 352], 1 to 50 nM.
Under `O=C(N[C@H]1COc2cc(N3CCNCC3)ccc2C1)c1ccc(NCc2cccc(C(F)(F)F)c2)nc1` [Example 469, (R)-N-(7-(piperazin-1-yl)chroman-3-yl)-6-((3-(trifluoromethyl)benzyl)amino)nicotinamide] stands 50 to 200 nM; under `Cc1ccc2c(N)c(C(=O)N[C@H]3COc4c(cc(F)c(N5CCNCC5)c4F)C3)sc2n1` (single isomer, unassigned) [Example 3-17], 1 to 50 nM.
The figure for `Cc1cc(C)c2c(N)c(C(=O)N[C@H]3CCc4nc(N5CC6CCC(C5)N6)ccc4C3)sc2n1` [Example 354, 3-amino-N-[(6S)-2-{3,8-diazabicyclo[3.2.1]octan-3-yl}-5,6,7,8-tetrahydroquinolin-6-yl]-4,6-dimethylthieno[2,3-b]pyridine-2-carboxamide] is 1 to 50 nM; for `Cc1ccc2c(N)c(C(=O)N[C@H]3CCc4nc(N5C[C@@H](N)[C@@H](C(F)F)C5)ccc4C3)sc2n1` [Example 346, 3-amino-N-[(6S)-2-[(3S,4S)-3-amino-4-(difluoromethyl)pyrrolidin-1-yl]-5,6,7,8-tetrahydroquinolin-6-yl]-6-methylthieno[2,3-b]pyridine-2-carboxamide] it is 50 to 200 nM; for `O=C(N[C@H]1COc2cc(N3CC4CCC(C3)N4)ccc2C1)c1cnc2c(c1)[C@@H]1C[C@@H]1CN2` [Example 3-15, (1aS,7bR)-N-((3R)-7-(3,8-diazabicyclo[3.2.l]octan-3-yl)chroman-3-yl)-1a,2,3,7b-tetrahydro-1H-cyclopropa[c][1,8]naphthyridine-6-carboxamide] it is 1 to 50 nM.
For `Cc1ccc2c(N)c(C(=O)N[C@H]3COc4cc(N5CC[C@H](N)C5)ccc4C3)sc2n1` [Example 369, 3-amino-N-[(3R)-7-[(3S)-3-aminopyrrolidin-1-yl]-3,4-dihydro-2H-1-benzopyran-3-yl]-6-methylthieno[2,3-b]pyridine-2-carboxamide], the IC50 fell in the range of 1 to 50 nM.
Take `Cc1ccc2c(N)c(C(=O)N[C@H]3COc4cc(N5CCC[C@@](C)(O)C5)ccc4C3)sc2n1` [Example 7-3, 3-amino-N-((R)-7-((R)-3-hydroxy-3-methylpiperidin-l-yl)chroman-3-yl)-6-methylthieno[2,3-b]pyridine-2-carboxamide]: the IC50 lay within 1 to 50 nM.
The figure for `COC[C@@H]1CN(c2ccc3c(n2)OC[C@H](NC(=O)c2sc4nc(C)cc(C)c4c2N)C3)C[C@@H]1N` [Example 348, 3-amino-N-[(3R)-7-[(3R,4R)-3-amino-4-(methoxymethyl)pyrrolidin-1-yl]-2H,3H,4H-pyrano[2,3-b]pyridin-3-yl]-4,6-dimethylthieno[2,3-b]pyridine-2-carboxamide] is 50 to 200 nM; for `CC(=O)N1CCCc2cc(C(=O)N[C@H]3COc4cc(N5CCNCC5)ccc4C3)ccc21` [Example 459, (R)-1-acetyl-N-(7-(piperazin-1-yl)chroman-3-yl)-1,2,3,4-tetrahydroquinoline-6-carboxamide] it is more than 2000 nM.
The figure for `O=C(N[C@H]1COc2cc(N3CC4CCC(C3)N4)ccc2C1)c1cnc2c(c1)[C@H]1C[C@H]1CN2` [Example 3-16, (1aR,7bS)-N-((3R)-7-(3,8-diazabicyclo[3.2.1]octan-3-yl)chroman-3-yl)-1a,2,3,7b-tetrahydro-1H-cyclopropa[c][1,8]naphthyridine-6-carboxamide] is 200 to 2000 nM; for `O=C(N[C@@H]1CCc2c(c(F)cc(N3CC4CCC(C3)N4)c2C(F)F)C1)c1cnc2c(c1)[C@@H]1C[C@@H]1CN2` (single isomer, unassigned) [Example 361] it is more than 2000 nM; for `O=C(N[C@H]1COc2cc(N3CCNCC3)ccc2C1)c1ccc(NCc2ccccn2)nc1` [Example 470, (R)-N-(7-(piperazin-1-yl)chroman-3-yl)-6-((pyridin-2-ylmethyl)amino)nicotinamide] it is more than 2000 nM.
As for `O=C(N[C@H]1CCc2c(c(F)cc(N3CC4CCC(C3)N4)c2C(F)F)C1)c1cnc2c(c1)[C@H]1C[C@H]1CN2` (single isomer, unassigned) [Example 360], the IC50 lay in the range of 1 to 50 nM.
The figure for `Cc1ccc2c(N)c(C(=O)N[C@H]3CCc4nc(N5C[C@@H](N)[C@@H](OC(C)(F)F)C5)ccc4C3)sc2n1` [Example 358, 3-amino-N-[(6S)-2-[(3R,4S)-3-amino-4-(1,1-difluoroethoxy)pyrrolidin-1-yl]-5,6,7,8-tetrahydroquinolin-6-yl]-6-methylthieno[2,3-b]pyridine-2-carboxamide] is 200 to 2000 nM.
Under `Cc1cc(C)n2ncc(C(=O)N[C@H]3COc4cc(N5CCNCC5)ccc4C3)c2n1` [Example 463, (R)-5,7-dimethyl-N-(7-(piperazin-1-yl)chroman-3-yl)pyrazolo[1,5-a]pyrimidine-3-carboxamide] stands more than 2000 nM.

These data come from patent US11524966B1 (Valo Early Discovery, Inc., priority 2017, dated 2022).
